According to patent publication US8110368B1, “Synuclein gamma as a biomarker of obesity and obesity-related disorders” (The United States of America Department of Agriculture, as …, priority 2008, dated 2012):

Assays:
[1] = tested on: leptin mRNA in 3T3-L1 adipocytes; assay: leptin mRNA expression in 3T3-L1 adipocytes treated with PPARγ agonist (quantitative real-time PCR); type: cell-based, murine; conditions: fully-differentiated 3T3-L1 adipocytes, 18 hr treatment, compared with the γ-synuclein mRNA decrease
Protocol: 3T3-L1 Adipocyte Differentiation & PPARγAgonist Studies. Results herein were generated using the samples described in our recently-published studies (1). Briefly, murine 3T3-L1 fibroblasts (ATCC, Manassas, Va.) grown to between 5-9 passages were induced to differentiate into adipocytes using a protocol similar to Farmer et al. (i.e., (22)). Two-day-confluent cells grown in high-glucose (25 mM) DMEM and 10% FBS (37° C., 5% CO2) in 6-well rat tail collagen-coated plates were exposed to differentiation medium containing 10 μg/ml bovine insulin (˜1.6 μM), 1 μM dexamethasone, and 0.5 mM 3-isobutyl-1-methylxanthine (IBMX) for 2 days. […]
Gene Expression Analyses. RNA abundance of γ-synuclein and of other genes of interest were measured in 3T3-L1 adipocyte samples using quantitative real-time PCR, as described in detail previously (1). […] Mouse and human tissue panel samples, and samples derived from non-obese and obese WAT (24) were assayed using a two-step process with preparation of cDNA from total RNA, followed by quantitative real-time PCR. […] Amplification cycle number (Ct) of 18S for each sample was determined using commercial 18S primers and probe (ABI) to correct for template loading differences across all target genes (ΔCt method: ΔCt=sample Ct−18S Ct), and expression values were determined relative to control transcript levels using a mathematical formula as previously described (1). […]

[2] = tested on: γ-synuclein mRNA in 3T3-L1 adipocytes; assay: γ-synuclein mRNA expression in 3T3-L1 adipocytes treated with PPARγ agonist (quantitative real-time PCR); type: cell-based, murine
Protocol: 3T3-L1 Adipocyte Differentiation & PPARγAgonist Studies. Results herein were generated using the samples described in our recently-published studies (1). Briefly, murine 3T3-L1 fibroblasts (ATCC, Manassas, Va.) grown to between 5-9 passages were induced to differentiate into adipocytes using a protocol similar to Farmer et al. (i.e., (22)). Two-day-confluent cells grown in high-glucose (25 mM) DMEM and 10% FBS (37° C., 5% CO2) in 6-well rat tail collagen-coated plates were exposed to differentiation medium containing 10 μg/ml bovine insulin (˜1.6 μM), 1 μM dexamethasone, and 0.5 mM 3-isobutyl-1-methylxanthine (IBMX) for 2 days. Cells were grown thereafter in maintenance medium (DMEM/10% FBS+2.5 μg/mL insulin). Cell culture media was replaced daily. Proof-of-principle studies tested the ability of the potent non-thiazoladinedione PPARγ agonist GW1929 (23) to regulate γ-synuclein gene expression at various points in the 3T3-L1 adipocyte differentiation and maturation process, as indicated. For these experiments, cells were cultured for the times and doses indicated in media containing vehicle (DMSO; 0.1% by vol.) or GW1929 (0.1% by vol.). RNA was prepared from 3T3-L1 adipocytes using Trizol-based methods for cell culture samples (Ambion, Austin, Tex.). RNA abundance and integrity were checked using a Nanoprop® ND-1000 Spectrophotometer (Nanoprop Technologies, Wilmington, Del.) and an Agilent 2100 bioanalyzer (Agilent, Foster City, Calif.) per manufacturer's instructions.
Gene Expression Analyses. RNA abundance of γ-synuclein and of other genes of interest were measured in 3T3-L1 adipocyte samples using quantitative real-time PCR, as described in detail previously (1). These assays utilized gene-specific TaqMan primers and FAM-MGB labeled probes (Assays-on-Demand®, Applied Biosystems Inc., Foster City, Calif.) and were run in duplicate or triplicate for each sample using an ABI 7900HT instrument. Primers/probe ABI identifiers for human reagents were γ-synuclein (Hs00268306 ml), leptin (Hs00174877 ml), and 11B-hydroxysteroid dehydrogenase (11β-HSD-1; Hs00194153 ml), and for mouse, γ-synuclein (Mm00488345 ml) and others described previously (1). Mouse and human tissue panel samples, and samples derived from non-obese and obese WAT (24) were assayed using a two-step process with preparation of cDNA from total RNA, followed by quantitative real-time PCR. […] Amplification cycle number (Ct) of 18S for each sample was determined using commercial 18S primers and probe (ABI) to correct for template loading differences across all target genes (ΔCt method: ΔCt=sample Ct−18S Ct), and expression values were determined relative to control transcript levels using a mathematical formula as previously described (1). […]

| SMILES | leptin mRNA pattern in response to short-term treatment [1] | decrease of γ-synuclein mRNA abundance ([2]; fully-differentiated 3T3-L1 adipocytes, 18 hr treatment, dose-response, vs vehicle (DMSO)) [%] | γ-synuclein expression (direction of change) ([2]; mature fat cells, single dose, short-term (18 hr) exposure) | γ-synuclein mRNA (direction of change) ([2]; pre-adipocytes and immature adipocytes, single dose, short-term (18 hr) exposure) | effective doses required to decrease γ-synuclein and leptin mRNA, compared to GW1929 ([2]; 3T3-L1 adipocytes, data not shown) |
| --- | --- | --- | --- | --- | --- |
| CN(CCOc1ccc(C[C@H](Nc2ccccc2C(=O)c2ccccc2)C(=O)O)cc1)c1ccccn1 [GW1929] | paralleled qualitatively | ≤ 50 | decrease | increased | – |
| Cc1c(C)c2c(c(C)c1O)CCC(C)(COc1ccc(CC3SC(=O)NC3=O)cc1)O2 (centres unmarked) [troglitazone] | – | – | – | – | at least 5 fold |
